{"source": "patent US11760784B2", "about": "“Compositions comprising PEDF-derived short peptides and uses thereof” (BRIM Biotechnology, Inc., priority 2016, dated 2023)", "tested_on": "IL-6 mRNA", "assay": "Ocular IL-6 mRNA by quantitative real-time PCR in CEC dry eye mice", "assay_type": "in vivo, C57BL6 mice", "settings": "CEC 14 days, then topical PDSP for 5 days", "procedure": "Dry eye is associated with abnormalities in the pre-corneal tear film and subsequent inflammatory changes in the entire ocular surface including the adnexa, conjunctiva and cornea. (see, Hessen et al., “Dry eye: An Inflammatory Ocular Disease,” J. Ophthalmic Vis. Res., 2014, 9(2): 240-250). Therefore, the effects of PDSPs in corneal inflammatory responses were next examined. Briefly, C57BL6 mice were housed in CEC for 14 days (Day 0) and then treatment with PDSP or vehicle were performed for additional 5 days (Day 5). Then, mRNA levels for inflammatory factors were evaluated by quantitative real-time PCR.\nThe total RNA was extracted from cells using TRIzol (Invitrogen) and treated with RNase free DNase I (Qiagen, Santa Clarita, CA) to remove genomic DNA and then purified with an RNA purification kit (Dynabeads; Invitrogen). […] Quantitative real-time PCR was performed in a GeneAmp 7700 sequence detection system (Applied Biosystems, Foster City, CA). […] All determinations were measured in triplicate. The cycle threshold (Ct) values corresponded to the PCR cycle number at which fluorescence emission in real time reaches a threshold above the base-line emission were analyzed using GeneAmp 7700 SDS software. The Ct value of the PCR product of interest and a control mRNA (GAPDH) were then used to calculate relative quantities of mRNA between samples."}
{"substance": "PDSP: 29mer, residues 93-121 of human PEDF: SLGAEQRTESIIHRALYYDLISSPDIHGT (SEQ ID NO:4) (listed as Homo sapiens)", "values": [{"measurement": "repression of ocular IL-6 mRNA expression compared to vehicle-treated group", "result": 2.0, "unit": "fold"}]}
